# Like-named read-outs stand apart in the source and are kept apart here.
# What was measured:
# orexin-1 = orexin-1 (Homo sapiens (Human), UniProt O43613); experiment: Intracellular calcium measurement (FLIPR), CHO cells expressing human orexin-1 receptor, 3 nM orexin-A; type: cell-based; settings: read-out: IC50 OX1
# Outline: (§1)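 CHO cells stably expressing each receptor were loaded with 3 μM fluo-4 AM plus 5 mM probenecid for 50 min at 37 °C, then equilibrated 30 min at rt.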
# human orexin-2 receptor = human orexin-2 receptor (Homo sapiens (Human), UniProt O43614); experiment: Intracellular calcium measurement (FLIPR), CHO cells expressing human orexin-2 receptor, 3 nM orexin-A; type: cell-based; settings: read-out: IC50 OX2
# Outline: as §1
# [1] = CHO cells expressing human orexin-1 receptor, FLIPR, 3 nM orexin-A, geometric mean if determined several times
# [2] = CHO cells expressing human orexin-2 receptor, FLIPR, 3 nM orexin-A, geometric mean if determined several times
# Sequence of orexin-1 (O43613 whole entry): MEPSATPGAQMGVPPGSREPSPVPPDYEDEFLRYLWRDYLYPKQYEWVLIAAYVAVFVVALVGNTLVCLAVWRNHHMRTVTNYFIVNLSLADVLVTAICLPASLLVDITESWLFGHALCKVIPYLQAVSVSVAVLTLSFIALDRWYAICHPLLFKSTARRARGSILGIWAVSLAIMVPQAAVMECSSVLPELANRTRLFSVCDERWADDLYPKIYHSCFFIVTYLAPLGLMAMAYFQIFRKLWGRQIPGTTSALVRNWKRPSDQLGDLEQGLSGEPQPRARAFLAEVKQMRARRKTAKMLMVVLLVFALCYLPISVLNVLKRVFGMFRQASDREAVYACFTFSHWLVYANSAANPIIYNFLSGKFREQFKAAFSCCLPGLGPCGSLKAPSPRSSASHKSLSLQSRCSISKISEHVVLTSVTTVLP
# Sequence of human orexin-2 receptor (O43614 whole entry): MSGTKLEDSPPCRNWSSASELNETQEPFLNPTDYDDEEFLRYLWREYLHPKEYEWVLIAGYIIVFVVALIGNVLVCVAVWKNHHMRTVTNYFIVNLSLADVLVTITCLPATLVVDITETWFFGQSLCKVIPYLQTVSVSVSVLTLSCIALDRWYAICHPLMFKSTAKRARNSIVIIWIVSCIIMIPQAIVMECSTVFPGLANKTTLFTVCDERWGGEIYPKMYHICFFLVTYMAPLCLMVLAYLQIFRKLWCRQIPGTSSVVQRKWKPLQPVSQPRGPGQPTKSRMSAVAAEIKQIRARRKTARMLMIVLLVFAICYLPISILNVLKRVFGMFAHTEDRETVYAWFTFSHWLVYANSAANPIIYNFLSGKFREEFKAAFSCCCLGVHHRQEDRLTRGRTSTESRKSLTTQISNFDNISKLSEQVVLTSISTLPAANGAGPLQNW
SMILES,IC50 (orexin-1; [1]) [nM],IC50 (human orexin-2 receptor; [2]) [nM],IC50 (human orexin-2 receptor) [nM],IC50 (orexin-1) [nM]
"CCc1cnc(-c2noc([C@@H]3CCCN3C(=O)c3cc(C)ccc3-n3nccn3)n2)cc1C [compound 61, {(S)-2-[3-(5-Ethyl-4-methyl-pyridin-2-yl)-[1,2,4]oxadiazol-5-yl]-pyrrolidin-1-yl}-(5-methyl-2-[1,2,3]triazol-2-yl-phenyl)-methanone]",1480,271,,
"Cc1ccc(-n2nccn2)c(C(=O)N2CCC[C@H]2c2nc(-c3cc(C)c(C)cn3)no2)c1 [compound 62, {(S)-2-[3-(4,5-Dimethyl-pyridin-2-yl)-[1,2,4]oxadiazol-5-yl]-pyrrolidin-1-yl}-(5-methyl-2-[1,2,3]triazol-2-yl-phenyl)-methanone]",> 1630,242,,
"COc1cc(O)ccc1-c1noc([C@@H]2CCCN2C(=O)c2cc(C)ccc2-n2nccn2)n1 [compound 64, {(S)-2-[3-(4-Hydroxy-2-methoxy-phenyl)-[1,2,4]oxadiazol-5-yl]-pyrrolidin-1-yl}-(5-methyl-2-[1,2,3]triazol-2-yl-phenyl)-methanone]",198,52,,
"Cc1ccc(-n2nccn2)c(C(=O)N2CCC[C@H]2c2nc(-c3cc(C)nc(C)c3)no2)c1 [compound 65, {(S)-2-[3-(2,6-Dimethyl-pyridin-4-yl)-[1,2,4]oxadiazol-5-yl]-pyrrolidin-1-yl}-(5-methyl-2-[1,2,3]triazol-2-yl-phenyl)-methanone]",758,375,,
"COc1cc(-c2noc([C@@H]3CCCN3C(=O)c3cc(C)ccc3-n3nccn3)n2)cc(C)n1 [compound 66, {(S)-2-[3-(2-Methoxy-6-methyl-pyridin-4-yl)-[1,2,4]oxadiazol-5-yl]-pyrrolidin-1-yl}-(5-methyl-2-[1,2,3]triazol-2-yl-phenyl)-methanone]",302,155,,
"Cc1cc(CC(C)C)nc(-c2noc([C@@H]3CCCN3C(=O)c3cc(C)ccc3-n3nccn3)n2)c1 [compound 67, {(S)-2-[3-(6-Isobutyl-4-methyl-pyridin-2-yl)-[1,2,4]oxadiazol-5-yl]-pyrrolidin-1-yl}-(5-methyl-2-[1,2,3]triazol-2-yl-phenyl)-methanone]",1250,333,,
"Cc1ccc(-n2nccn2)c(C(=O)N2CCC[C@H]2c2nc(-c3ccnc(C)c3)no2)c1 [compound 68, {(S)-2-[3-(2-Methyl-pyridin-4-yl)-[1,2,4]oxadiazol-5-yl]-pyrrolidin-1-yl}-(5-methyl-2-[1,2,3]triazol-2-yl-phenyl)-methanone]",6670,915,,
"COc1ccc(F)c(-c2noc([C@@H]3CCCN3C(=O)c3cc(C)ccc3-n3nccn3)n2)c1F [compound 69, {(S)-2-[3-(2,6-Difluoro-3-methoxy-phenyl)-[1,2,4]oxadiazol-5-yl]-pyrrolidin-1-yl}-(5-methyl-2-[1,2,3]triazol-2-yl-phenyl)-methanone]",1840,163,,
COc1cccc(-c2noc([C@@H]3CCCN3C(=O)c3cc(C)ccc3-n3nccn3)n2)c1Cl [compound 70],623,,53,
"Cc1ccc(-n2nccn2)c(C(=O)N2CCC[C@H]2c2nc(-c3cccnc3OC(C)C)no2)c1 [compound 71, {(S)-2-[3-(2-Isopropoxy-pyridin-3-yl)-[1,2,4]oxadiazol-5-yl]-pyrrolidin-1-yl}-(5-methyl-2-[1,2,3]triazol-2-yl-phenyl)-methanone]",8,22,,
Cc1ccc(-n2nccn2)c(C(=O)N2CCC[C@H]2c2nc(-c3ccnc(Cl)c3)no2)c1 [compound 73],3480,1160,,
"COc1ccc(-c2noc([C@@H]3CCCN3C(=O)c3cc(C)ccc3-n3nccn3)n2)cc1OC [compound 82, {(S)-2-[3-(3,4-Dimethoxy-phenyl)-[1,2,4]oxadiazol-5-yl]-pyrrolidin-1-yl}-(5-methyl-2-[1,2,3]triazol-2-yl-phenyl)-methanone]",874,131,,
Cc1ccc(-c2ccccc2)c(C(=O)N2CCC[C@H]2c2nc(-c3cccc(Cl)c3C)no2)c1 [compound 88],49,11,,
Cc1ccc(-n2cccn2)c(C(=O)N2CCC[C@H]2c2nc(-c3cccc(Cl)c3C)no2)c1 [compound 89],97,14,,
Cc1ccc(-c2ccccn2)c(C(=O)N2CCC[C@H]2c2nc(-c3cccc(Cl)c3C)no2)c1 [compound 90],137,25,,
Cc1cccc(-c2oc(C)nc2C(=O)N2CCC[C@H]2c2nc(-c3cccc(Cl)c3C)no2)c1 [compound 91],104,91,,
Cc1cccc(-c2ocnc2C(=O)N2CCC[C@H]2c2nc(-c3cccc(Cl)c3C)no2)c1 [compound 92],120,53,,
Cc1c(Cl)cccc1-c1noc([C@@H]2CCCN2C(=O)c2ccccc2-n2nccn2)n1 [compound 93],399,28,,
Cc1c(Cl)cccc1-c1noc([C@@H]2CCCN2C(=O)c2ncsc2-c2cccc(Cl)c2)n1 [compound 94],237,201,,
Cc1ccc(C(=O)N2CCC[C@H]2c2nc(-c3cccc(Cl)c3C)no2)c(-n2nccn2)c1 [compound 96],109,12,,
Cc1c(Cl)cccc1-c1noc([C@@H]2CCCN2C(=O)c2cc(C(F)(F)F)ccc2-n2nccn2)n1 [compound 97],568,194,,
Cc1cccc(-n2nccn2)c1C(=O)N1CCC[C@H]1c1nc(-c2cccc(Cl)c2C)no1 [compound 98],462,127,,
Cc1c(Cl)cccc1-c1noc([C@@H]2CCCN2C(=O)c2cc(OC(F)(F)F)ccc2-n2nccn2)n1 [compound 99],,614,,895

# Now from value to molecule, other results behind:
IC50 (orexin-1; [1]) [nM],IC50 (human orexin-2 receptor; [2]) [nM],SMILES,IC50 (human orexin-2 receptor) [nM],IC50 (orexin-1) [nM]
1420,361,"Cc1ccc(-n2nccn2)c(C(=O)N2CCC[C@H]2c2nc(-c3ccc(C)c(C)n3)no2)c1 [compound 63, {(S)-2-[3-(5,6-Dimethyl-pyridin-2-yl)-[1,2,4]oxadiazol-5-yl]-pyrrolidin-1-yl}-(5-methyl-2-[1,2,3]triazol-2-yl-phenyl)-methanone]",,
901,57,"COc1cccc(F)c1-c1noc([C@@H]2CCCN2C(=O)c2cc(C)ccc2-n2nccn2)n1 [compound 72, {(S)-2-[3-(2-Fluoro-6-methoxy-phenyl)-[1,2,4]oxadiazol-5-yl]-pyrrolidin-1-yl}-(5-methyl-2-[1,2,3]triazol-2-yl-phenyl)-methanone]",,
254,6,"Cc1ccc(-n2nccn2)c(C(=O)N2CCC[C@H]2c2nc(-c3cccc4c3ccn4C)no2)c1 [compound 74, {(S)-2-[3-(1-Methyl-1H-indol-4-yl)-[1,2,4]oxadiazol-5-yl]-pyrrolidin-1-yl}-(5-methyl-2-[1,2,3]triazol-2-yl-phenyl)-methanone]",,
1570,261,"Cc1ccc(-n2nccn2)c(C(=O)N2CCC[C@H]2c2nc(-c3ccnc4[nH]ccc34)no2)c1 [compound 75, (5-Methyl-2-[1,2,3]triazol-2-yl-phenyl)-{(S)-2-[3-(1H-pyrrolo[2,3-b]pyridin-4-yl)-[1,2,4]oxadiazol-5-yl]-pyrrolidin-1-yl}-methanone]",,
901,40,"Cc1ccc(-n2nccn2)c(C(=O)N2CCC[C@H]2c2nc(-c3c(C)cccc3F)no2)c1 [compound 76, {(S)-2-[3-(2-Fluoro-6-methyl-phenyl)-[1,2,4]oxadiazol-5-yl]-pyrrolidin-1-yl}-(5-methyl-2-[1,2,3]triazol-2-yl-phenyl)-methanone]",,
52,8,"Cc1ccc(-n2nccn2)c(C(=O)N2CCC[C@H]2c2nc(-c3cccc4ccn(C)c34)no2)c1 [compound 77, {(S)-2-[3-(1-Methyl-1H-indol-7-yl)-[1,2,4]oxadiazol-5-yl]-pyrrolidin-1-yl}-(5-methyl-2-[1,2,3]triazol-2-yl-phenyl)-methanone]",,
2290,29,"Cc1ccc(-n2nccn2)c(C(=O)N2CCC[C@H]2c2nc(-c3cccnc3C)no2)c1 [compound 78, {(S)-2-[3-(2-Methyl-pyridin-3-yl)-[1,2,4]oxadiazol-5-yl]-pyrrolidin-1-yl}-(5-methyl-2-[1,2,3]triazol-2-yl-phenyl)-methanone]",,
2750,1070,"Cc1ccc(-n2nccn2)c(C(=O)N2CCC[C@H]2c2nc(-c3c[nH]c4cccc(C)c34)no2)c1 [compound 79, {(S)-2-[3-(4-Methyl-1H-indol-3-yl)-[1,2,4]oxadiazol-5-yl]-pyrrolidin-1-yl}-(5-methyl-2-[1,2,3]triazol-2-yl-phenyl)-methanone]",,
252,16,"Cc1ccc(-n2nccn2)c(C(=O)N2CCC[C@H]2c2nc(-c3ccc(C)c(C)c3)no2)c1 [compound 80, {(S)-2-[3-(3,4-Dimethyl-phenyl)-[1,2,4]oxadiazol-5-yl]-pyrrolidin-1-yl}-(5-methyl-2-[1,2,3]triazol-2-yl-phenyl)-methanone]",,
309,19,"Cc1ccc(-c2noc([C@@H]3CCCN3C(=O)c3cc(C)ccc3-n3nccn3)n2)c(C)c1 [compound 81, {(S)-2-[3-(2,4-Dimethyl-phenyl)-[1,2,4]oxadiazol-5-yl]-pyrrolidin-1-yl}-(5-methyl-2-[1,2,3]triazol-2-yl-phenyl)-methanone]",,
3470,302,"Cc1ccc(-n2nccn2)c(C(=O)N2CCC[C@H]2c2nc(-c3ncccc3C)no2)c1 [compound 83, {(S)-2-[3-(3-Methyl-pyridin-2-yl)-[1,2,4]oxadiazol-5-yl]-pyrrolidin-1-yl}-(5-methyl-2-[1,2,3]triazol-2-yl-phenyl)-methanone]",,
63,8,"Cc1ccc(-n2nccn2)c(C(=O)N2CCC[C@H]2c2nc(-c3cc(C)ccc3C)no2)c1 [compound 84, {(S)-2-[3-(2,5-Dimethyl-phenyl)-[1,2,4]oxadiazol-5-yl]-pyrrolidin-1-yl}-(5-methyl-2-[1,2,3]triazol-2-yl-phenyl)-methanone]",,

# Source: US9493446B2, “Orexin receptor antagonists which are [ortho bi-(hetero-)aryl]-[2-(meta bi-(hetero-)aryl)-pyrrolidin-1-yl]-methanone derivatives” (Actelion Pharmaceuticals Ltd, priority 2012, dated 2016)
